What was measured:
[1] = target: JAK2 (Homo sapiens (Human), UniProt O60674); assay: LanthaScreen JAK biochemical assay (JAK2)
[2] = system: IL-13 induced STAT6 phosphorylation in BEAS-2B human lung epithelial cells; assay: AlphaScreen cellular JAK potency assay, BEAS-2B
[3] = system: IL-4 induced STAT6 phosphorylation in THP-1 human monocytic cells; assay: Cellular JAK potency assay, THP-1
[4] = target: JAK1 (Homo sapiens (Human), UniProt P23458); assay: LanthaScreen JAK biochemical assay (JAK1)
Chain of JAK1 (P23458 whole entry): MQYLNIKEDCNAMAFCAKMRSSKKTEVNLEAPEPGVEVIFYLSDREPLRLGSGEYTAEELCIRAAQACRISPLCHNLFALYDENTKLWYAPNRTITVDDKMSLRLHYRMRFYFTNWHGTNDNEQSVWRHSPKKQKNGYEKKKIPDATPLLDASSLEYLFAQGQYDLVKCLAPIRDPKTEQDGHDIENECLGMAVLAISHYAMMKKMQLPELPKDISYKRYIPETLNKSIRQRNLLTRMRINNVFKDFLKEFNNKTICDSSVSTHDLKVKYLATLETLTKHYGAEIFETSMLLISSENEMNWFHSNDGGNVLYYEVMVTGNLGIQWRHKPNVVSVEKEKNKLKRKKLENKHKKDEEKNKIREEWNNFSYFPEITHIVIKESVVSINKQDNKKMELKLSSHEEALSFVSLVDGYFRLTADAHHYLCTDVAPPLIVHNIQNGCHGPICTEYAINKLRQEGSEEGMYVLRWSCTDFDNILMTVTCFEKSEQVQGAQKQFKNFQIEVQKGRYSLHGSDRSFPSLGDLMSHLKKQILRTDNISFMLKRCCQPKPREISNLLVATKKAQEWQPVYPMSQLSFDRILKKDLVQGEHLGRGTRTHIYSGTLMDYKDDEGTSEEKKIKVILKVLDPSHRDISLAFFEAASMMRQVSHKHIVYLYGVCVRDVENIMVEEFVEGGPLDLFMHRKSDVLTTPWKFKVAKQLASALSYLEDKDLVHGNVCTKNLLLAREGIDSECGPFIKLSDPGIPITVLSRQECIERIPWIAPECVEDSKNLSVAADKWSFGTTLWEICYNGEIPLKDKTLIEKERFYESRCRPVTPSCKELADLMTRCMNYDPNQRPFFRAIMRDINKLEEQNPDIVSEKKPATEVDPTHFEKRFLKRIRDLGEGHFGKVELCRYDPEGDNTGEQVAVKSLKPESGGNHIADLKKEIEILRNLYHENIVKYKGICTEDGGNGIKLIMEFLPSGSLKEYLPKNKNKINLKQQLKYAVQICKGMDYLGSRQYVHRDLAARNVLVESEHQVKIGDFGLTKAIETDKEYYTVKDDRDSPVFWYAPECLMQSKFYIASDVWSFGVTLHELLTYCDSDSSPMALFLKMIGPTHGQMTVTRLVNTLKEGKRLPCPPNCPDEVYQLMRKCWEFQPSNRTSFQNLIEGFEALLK

[5] = target: JAK3 (Homo sapiens (Human), UniProt P52333); assay: LanthaScreen JAK biochemical assay (JAK3)
[6] = target: Tyk2 (Homo sapiens (Human), UniProt P29597); assay: LanthaScreen JAK biochemical assay (Tyk2)
Chain of Tyk2 (P29597 whole entry): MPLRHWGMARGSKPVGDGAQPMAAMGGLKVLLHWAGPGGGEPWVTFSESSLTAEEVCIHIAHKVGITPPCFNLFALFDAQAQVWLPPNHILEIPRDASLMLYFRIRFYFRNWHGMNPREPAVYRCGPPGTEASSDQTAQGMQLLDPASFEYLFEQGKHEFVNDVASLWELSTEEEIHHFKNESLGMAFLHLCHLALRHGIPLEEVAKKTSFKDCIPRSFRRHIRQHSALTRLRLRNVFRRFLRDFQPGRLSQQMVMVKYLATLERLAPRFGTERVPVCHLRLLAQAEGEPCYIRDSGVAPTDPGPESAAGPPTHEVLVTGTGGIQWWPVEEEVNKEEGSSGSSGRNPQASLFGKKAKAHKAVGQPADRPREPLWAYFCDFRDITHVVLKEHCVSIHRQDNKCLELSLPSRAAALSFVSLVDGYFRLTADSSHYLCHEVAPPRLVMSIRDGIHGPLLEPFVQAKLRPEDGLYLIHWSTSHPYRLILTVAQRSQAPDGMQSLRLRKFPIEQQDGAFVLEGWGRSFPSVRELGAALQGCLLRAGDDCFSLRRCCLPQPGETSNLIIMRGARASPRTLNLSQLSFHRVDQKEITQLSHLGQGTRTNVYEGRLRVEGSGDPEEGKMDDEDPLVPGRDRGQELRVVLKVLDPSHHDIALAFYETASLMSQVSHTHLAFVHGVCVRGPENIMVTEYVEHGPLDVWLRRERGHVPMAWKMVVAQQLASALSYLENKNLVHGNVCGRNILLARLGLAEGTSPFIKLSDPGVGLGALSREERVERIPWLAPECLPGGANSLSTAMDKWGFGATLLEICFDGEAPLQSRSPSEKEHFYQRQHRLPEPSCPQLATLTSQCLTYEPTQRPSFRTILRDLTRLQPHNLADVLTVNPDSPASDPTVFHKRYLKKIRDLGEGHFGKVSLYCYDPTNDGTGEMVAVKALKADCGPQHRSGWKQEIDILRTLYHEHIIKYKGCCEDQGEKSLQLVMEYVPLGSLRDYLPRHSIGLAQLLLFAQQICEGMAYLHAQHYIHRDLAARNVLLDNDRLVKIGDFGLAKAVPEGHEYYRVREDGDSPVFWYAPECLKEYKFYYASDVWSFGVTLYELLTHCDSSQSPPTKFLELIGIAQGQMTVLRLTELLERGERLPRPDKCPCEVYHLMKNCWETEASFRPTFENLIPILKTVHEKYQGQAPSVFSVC

[7] = IL-13 induced STAT6 phosphorylation, BEAS-2B cells
[8] = IL-4 induced STAT6 phosphorylation, THP-1 cells
[9] = BEAS-2B cells, IL-13 induced STAT6 phosphorylation
[10] = THP-1 cells, IL-4 induced STAT6 phosphorylation

Chain of JAK2 (O60674 whole entry): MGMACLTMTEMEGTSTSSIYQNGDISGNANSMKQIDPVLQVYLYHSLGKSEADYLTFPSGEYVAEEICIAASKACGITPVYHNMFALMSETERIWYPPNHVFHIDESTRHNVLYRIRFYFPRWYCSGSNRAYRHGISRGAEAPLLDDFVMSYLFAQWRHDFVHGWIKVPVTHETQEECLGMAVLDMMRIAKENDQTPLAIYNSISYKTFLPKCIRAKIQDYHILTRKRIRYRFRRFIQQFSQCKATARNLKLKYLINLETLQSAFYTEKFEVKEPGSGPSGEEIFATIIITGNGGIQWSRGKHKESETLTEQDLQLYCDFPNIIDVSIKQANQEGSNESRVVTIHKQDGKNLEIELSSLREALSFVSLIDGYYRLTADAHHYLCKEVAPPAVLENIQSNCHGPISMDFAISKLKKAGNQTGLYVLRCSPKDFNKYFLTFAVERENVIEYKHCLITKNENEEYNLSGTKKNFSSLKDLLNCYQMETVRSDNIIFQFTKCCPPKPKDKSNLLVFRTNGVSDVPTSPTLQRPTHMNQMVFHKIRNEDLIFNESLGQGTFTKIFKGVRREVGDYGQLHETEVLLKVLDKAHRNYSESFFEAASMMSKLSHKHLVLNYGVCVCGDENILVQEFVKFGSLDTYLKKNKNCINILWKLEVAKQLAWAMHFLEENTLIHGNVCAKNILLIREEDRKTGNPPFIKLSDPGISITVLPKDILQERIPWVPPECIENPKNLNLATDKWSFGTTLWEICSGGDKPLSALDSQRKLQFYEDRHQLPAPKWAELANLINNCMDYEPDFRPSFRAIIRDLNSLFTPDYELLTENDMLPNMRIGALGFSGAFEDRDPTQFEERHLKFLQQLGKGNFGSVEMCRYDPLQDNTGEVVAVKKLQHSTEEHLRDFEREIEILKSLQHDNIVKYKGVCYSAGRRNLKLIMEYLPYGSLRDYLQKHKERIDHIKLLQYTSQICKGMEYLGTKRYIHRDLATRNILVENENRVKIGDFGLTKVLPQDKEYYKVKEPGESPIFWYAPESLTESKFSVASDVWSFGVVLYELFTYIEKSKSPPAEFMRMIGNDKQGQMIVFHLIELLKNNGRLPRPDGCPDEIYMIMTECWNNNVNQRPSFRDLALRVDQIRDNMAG

| SMILES | JAK 2 (pKi) [1] | BEAS2B pIC50 [2, 7] | THP-1 IL4 pIC50 [3, 8] | JAK 1 (pKi) [4] | JAK 3 (pKi) [5] | Tyk 2 (pKi) [6] | BEAS2B pIC50 [2, 9] | THP-1 IL4 pIC50 [3, 10] |
| --- | --- | --- | --- | --- | --- | --- | --- | --- |
| Cc1cc(Nc2cc3ncccc3c(N[C@@H]3C[C@H]4CC[C@@H](C3)N4C(=O)C(C)F)n2)n[nH]1 (some centres unmarked) [Example 2-3] | B (B represents a pKi value between 9 and 10 (Ki between 1 nM and 0.1 nM)) | A (A represents a pEC50 value≥7.5 (EC50≤32 nM)) | B (B represents a pEC50 value between 6.7 and 7.5 (EC50 between 200 nM and 32 nM)) | B (B represents a pKi value between 9 and 10 (Ki between 1 nM and 0.1 nM)) | C (C represents a pKi value between 7 and 9 (Ki between 100 nM and 1 nM)) | – | – | – |
| CCC(C)C(=O)N1C2CCCC1CC(Nc1nc(Nc3cc(C)[nH]n3)cc3ncccc13)C2 (centres unmarked) [Example 2-18] | B (B represents a pKi value between 9 and 10 (Ki between 1 nM and 0.1 nM)) | – | A (A represents a pEC50 value≥7.5 (EC50≤32 nM)) | B (B represents a pKi value between 9 and 10 (Ki between 1 nM and 0.1 nM)) | C (C represents a pKi value between 7 and 9 (Ki between 100 nM and 1 nM)) | B (B represents a pKi value between 9 and 10 (Ki between 1 nM and 0.1 nM)) | – | – |
| C=CCOC(=O)N1[C@@H]2CC[C@H]1C[C@H](Nc1nc(Nc3cc(C)[nH]n3)cc3nc(OC)ccc13)C2 [Example 5-7] | – | A (A represents a pEC50 value≥7.5 (EC50≤32 nM)) | B (B represents a pEC50 value between 6.7 and 7.5 (EC50 between 200 nM and 32 nM)) | B (B represents a pKi value between 9 and 10 (Ki between 1 nM and 0.1 nM)) | C (C represents a pKi value between 7 and 9 (Ki between 100 nM and 1 nM)) | – | – | – |
| Cc1cc(Nc2cc3nc(CN4CCC(F)(F)CC4)ccc3c(N[C@@H]3C[C@H]4CC[C@@H](C3)N4CC(C)C)n2)n[nH]1 [Example 5-34] | B (B represents a pKi value between 9 and 10 (Ki between 1 nM and 0.1 nM)) | – | B (B represents a pEC50 value between 6.7 and 7.5 (EC50 between 200 nM and 32 nM)) | B (B represents a pKi value between 9 and 10 (Ki between 1 nM and 0.1 nM)) | C (C represents a pKi value between 7 and 9 (Ki between 100 nM and 1 nM)) | B (B represents a pKi value between 9 and 10 (Ki between 1 nM and 0.1 nM)) | – | – |
| Cc1cc(Nc2cc3nc(CS(C)(=O)=O)ccc3c(N[C@@H]3C[C@H]4CC[C@@H](C3)N4CCC(F)(F)F)n2)n[nH]1 [Example 5-43] | B (B represents a pKi value between 9 and 10 (Ki between 1 nM and 0.1 nM)) | – | B (B represents a pEC50 value between 6.7 and 7.5 (EC50 between 200 nM and 32 nM)) | B (B represents a pKi value between 9 and 10 (Ki between 1 nM and 0.1 nM)) | C (C represents a pKi value between 7 and 9 (Ki between 100 nM and 1 nM)) | B (B represents a pKi value between 9 and 10 (Ki between 1 nM and 0.1 nM)) | – | – |
| Cc1cnc2cc(Nc3cc(C)[nH]n3)nc(N[C@@H]3C[C@H]4CC[C@@H](C3)N4C(=O)OCC(C)C)c2c1 [Example 6-3] | B (B represents a pKi value between 9 and 10 (Ki between 1 nM and 0.1 nM)) | – | – | B (B represents a pKi value between 9 and 10 (Ki between 1 nM and 0.1 nM)) | C (C represents a pKi value between 7 and 9 (Ki between 100 nM and 1 nM)) | – | B (B represents a pEC50 value between 6.7 and 7.5 (EC50 between 200 nM and 32 nM)) | B (B represents a pEC50 value between 6.7 and 7.5 (EC50 between 200 nM and 32 nM)) |
| Cc1cnc2cc(Nc3cc(C)[nH]n3)nc(N[C@@H]3C[C@H]4CCC[C@@H](C3)N4CCC#N)c2c1 [Example 6-6] | A (A represents a pKi value≥10 (Ki≤0.1 nM)) | – | – | – | B (B represents a pKi value between 9 and 10 (Ki between 1 nM and 0.1 nM)) | – | A (A represents a pEC50 value≥7.5 (EC50≤32 nM)) | A (A represents a pEC50 value≥7.5 (EC50≤32 nM)) |
| Cc1cnc2cc(Nc3cc(C)[nH]n3)nc(N[C@@H]3C[C@H]4CCC[C@@H](C3)N4Cc3ccncc3)c2c1 [Example 6-10] | B (B represents a pKi value between 9 and 10 (Ki between 1 nM and 0.1 nM)) | – | – | B (B represents a pKi value between 9 and 10 (Ki between 1 nM and 0.1 nM)) | C (C represents a pKi value between 7 and 9 (Ki between 100 nM and 1 nM)) | B (B represents a pKi value between 9 and 10 (Ki between 1 nM and 0.1 nM)) | – | B (B represents a pEC50 value between 6.7 and 7.5 (EC50 between 200 nM and 32 nM)) |
| COc1cnc2cc(Nc3cc(C)[nH]n3)nc(N[C@@H]3C[C@H]4CC[C@@H](C3)N4C(=O)OCC(C)C)c2c1 [Example 6-25] | – | – | – | – | C (C represents a pKi value between 7 and 9 (Ki between 100 nM and 1 nM)) | – | A (A represents a pEC50 value≥7.5 (EC50≤32 nM)) | B (B represents a pEC50 value between 6.7 and 7.5 (EC50 between 200 nM and 32 nM)) |
| COc1cnc2cc(Nc3cc(C)[nH]n3)nc(NC3CC4CCCC(C3)N4C(=O)C(C)O)c2c1 (centres unmarked) [Example 6-27] | B (B represents a pKi value between 9 and 10 (Ki between 1 nM and 0.1 nM)) | – | – | B (B represents a pKi value between 9 and 10 (Ki between 1 nM and 0.1 nM)) | C (C represents a pKi value between 7 and 9 (Ki between 100 nM and 1 nM)) | C (C represents a pKi value between 7 and 9 (Ki between 100 nM and 1 nM)) | – | B (B represents a pEC50 value between 6.7 and 7.5 (EC50 between 200 nM and 32 nM)) |
| CCC(C)C(=O)N1C2CCC1CC(Nc1nc(Nc3cc(C)[nH]n3)cc3ncc(C(=O)OC)cc13)C2 (centres unmarked) [Example 6-38] | B (B represents a pKi value between 9 and 10 (Ki between 1 nM and 0.1 nM)) | – | – | B (B represents a pKi value between 9 and 10 (Ki between 1 nM and 0.1 nM)) | C (C represents a pKi value between 7 and 9 (Ki between 100 nM and 1 nM)) | C (C represents a pKi value between 7 and 9 (Ki between 100 nM and 1 nM)) | – | B (B represents a pEC50 value between 6.7 and 7.5 (EC50 between 200 nM and 32 nM)) |
| Cc1cc(Nc2cc3ncc(S(C)(=O)=O)cc3c(N[C@@H]3C[C@H]4CC[C@@H](C3)N4C(=O)CC#N)n2)n[nH]1 [Example 6-51] | B (B represents a pKi value between 9 and 10 (Ki between 1 nM and 0.1 nM)) | – | – | B (B represents a pKi value between 9 and 10 (Ki between 1 nM and 0.1 nM)) | C (C represents a pKi value between 7 and 9 (Ki between 100 nM and 1 nM)) | – | – | C (C represents a pEC50 value<6.7 (EC50>200 nM)) |
| Cc1cc(Nc2nc(N[C@@H]3C[C@H]4CC[C@@H](C3)N4CCC#N)c3cccnc3c2F)n[nH]1 [Example 8-1] | B (B represents a pKi value between 9 and 10 (Ki between 1 nM and 0.1 nM)) | – | – | B (B represents a pKi value between 9 and 10 (Ki between 1 nM and 0.1 nM)) | C (C represents a pKi value between 7 and 9 (Ki between 100 nM and 1 nM)) | – | – | B (B represents a pEC50 value between 6.7 and 7.5 (EC50 between 200 nM and 32 nM)) |
| Cc1cc(Nc2nc(N[C@@H]3C[C@H]4CC[C@@H](C3)N4S(C)(=O)=O)c3cccnc3c2F)n[nH]1 [Example 8-2] | B (B represents a pKi value between 9 and 10 (Ki between 1 nM and 0.1 nM)) | – | – | B (B represents a pKi value between 9 and 10 (Ki between 1 nM and 0.1 nM)) | C (C represents a pKi value between 7 and 9 (Ki between 100 nM and 1 nM)) | – | C (C represents a pEC50 value<6.7 (EC50>200 nM)) | A (A represents a pEC50 value≥7.5 (EC50≤32 nM)) |
| Cc1cc(Nc2nc(N[C@@H]3C[C@H]4CCC[C@@H](C3)N4CCC#N)c3cccnc3c2F)n[nH]1 [Example 8-9] | B (B represents a pKi value between 9 and 10 (Ki between 1 nM and 0.1 nM)) | – | – | B (B represents a pKi value between 9 and 10 (Ki between 1 nM and 0.1 nM)) | C (C represents a pKi value between 7 and 9 (Ki between 100 nM and 1 nM)) | – | – | B (B represents a pEC50 value between 6.7 and 7.5 (EC50 between 200 nM and 32 nM)) |
| Cc1cc(Nc2nc(N[C@@H]3C[C@H]4CCC[C@@H](C3)N4S(=O)(=O)c3cncc(F)c3)c3cccnc3c2F)n[nH]1 [Example 8-13] | B (B represents a pKi value between 9 and 10 (Ki between 1 nM and 0.1 nM)) | – | – | B (B represents a pKi value between 9 and 10 (Ki between 1 nM and 0.1 nM)) | C (C represents a pKi value between 7 and 9 (Ki between 100 nM and 1 nM)) | – | A (A represents a pEC50 value≥7.5 (EC50≤32 nM)) | B (B represents a pEC50 value between 6.7 and 7.5 (EC50 between 200 nM and 32 nM)) |
| Cc1cc(Nc2nc(N[C@@H]3C[C@H]4CCC[C@@H](C3)N4Cc3ccncc3)c3cccnc3c2F)n[nH]1 [Example 8-14] | B (B represents a pKi value between 9 and 10 (Ki between 1 nM and 0.1 nM)) | – | – | B (B represents a pKi value between 9 and 10 (Ki between 1 nM and 0.1 nM)) | C (C represents a pKi value between 7 and 9 (Ki between 100 nM and 1 nM)) | – | A (A represents a pEC50 value≥7.5 (EC50≤32 nM)) | A (A represents a pEC50 value≥7.5 (EC50≤32 nM)) |
| Cc1cnc2c(F)c(Nc3cc(C)[nH]n3)nc(N[C@@H]3C[C@H]4CCC[C@@H](C3)N4S(=O)(=O)c3cccnc3)c2c1 [Example 8-24] | B (B represents a pKi value between 9 and 10 (Ki between 1 nM and 0.1 nM)) | – | – | B (B represents a pKi value between 9 and 10 (Ki between 1 nM and 0.1 nM)) | C (C represents a pKi value between 7 and 9 (Ki between 100 nM and 1 nM)) | – | B (B represents a pEC50 value between 6.7 and 7.5 (EC50 between 200 nM and 32 nM)) | B (B represents a pEC50 value between 6.7 and 7.5 (EC50 between 200 nM and 32 nM)) |
